Measurements published in patent US11911349B2, “Rapidly improving vascular conditions by administering vitamin K” (NATTOPHARMA AS, priority 2018, dated 2024).

How the values were obtained:
[1] = tested on: kidney transplantation patients; experiment: Clinical study: pulse wave velocity measurement of arterial stiffness in kidney transplantation patients; format: in vivo, human; conditions: 360 ug/day for 8 weeks, kidney transplant patients
Protocol: Clinical Study to study the efficacy and safety of Vitamin K2 supplementation on arterial stiffness, the rigidity of arterial walls, in kidney transplantation patients.
A clinical study was carried out. Arterial wall property measurements were taken at t=0 and t=8 weeks and show a dramatic improvement in arterial wall flexibility. This is good support for concluding that the ingestion of vitamin K, even over this short period, is an effective way of improving endothelial function, reducing arterial stiffness and reducing calcification. […] It is surprising and unexpected because calcification is a slow progressive process and it was thought that reversing this process would also be slow and progressive.
(§1) Participants were enrolled in a clinical trial in which the effects of vitamin K2 were determined for patients who had recently undergone a kidney transplant. At the beginning of the study, patients were subjected to a non-invasive pulse wave velocity measurement to measure arterial stiffness/flexibility, as well as blood analysis. The study participants were then instructed to receive a specific daily dose of MenaQ7 vitamin K2 menaquinone-7 (360 ug/day) for a total of 8 weeks. At the end of 8 weeks, patients were again examined with a follow-up examination, a non-invasive pulse wave velocity measurement and blood analysis and drug treatment was discontinued.

[2] = tested on: matrix gla protein (MGP); experiment: Clinical study: blood analysis of matrix gla protein (MGP) carboxylation; format: in vivo, human; conditions: 360 ug/day for 8 weeks, kidney transplant patients
Protocol: as §1
As part of the blood analysis, carboxylated matrix gla protein (MGP) was measured as a direct measure of vitamin K2 activity. The carboxylated MGP inhibits calcification of blood vessels and Vitamin K2 stimulates carboxylation of MGP.

`CC(C)=CCC/C(C)=C/CC/C(C)=C/CC/C(C)=C/CC/C(C)=C/CC/C(C)=C/CC/C(C)=C/CC1=C(C)C(=O)c2ccccc2C1=O` [MenaQ7, menaquinone-7] was tested, and the “mean reduction in measured pulse-wave velocity” value [1] was 30% and the “mean reduction of levels of uncarboxylated MGP” value [2] was 55%.
